Test results: ChEMBL document CHEMBL3244239, “Potential antitumor agents. Synthesis, reactivity, and cytoxicity of alpha-methylene carbonyl compounds” (1978)
Converted amounts (≈) assume the structure as drawn.

Test system: KB
Assay: Cytotoxicity against human KB cells
Type: functional
Conditions: read-out: ED50 (the source's name)

With `O=C1OCC/C1=C\CCC/C=C1\CCOC1=O` as the compound, how does the EC50 read?
The EC50 was over 100 µg/mL.

Which EC50 does the source give for `C=C1C(=O)O[C@@H]2CCCC[C@@H]12` (relative stereo) here?
The EC50 was 38 µg/mL (≈ 250 µM).

`C=C(C)C(=O)O[C@H]1CC2=C[C@@H](C[C@@]3(C)O[C@@H]3[C@H]3OC(=O)C(=C)[C@@H]31)OC2=O` [ELEPHANTOPIN] was tested. Which EC50 did it give?
The EC50 was 1 µg/mL (≈ 2.77 µM).

With `C=C1CCOC1=O` [TULIPALINE A] as the compound, how does the EC50 read?
Its EC50 is 16 µg/mL (≈ 163 µM).

How did the EC50 turn out when `C=C1CC(CCCC2CC(=C)C(=O)O2)OC1=O` (stereo not drawn) was run?
Its EC50 is 4 µg/mL (≈ 16.9 µM).

How did the EC50 turn out when `O=C1OCC/C1=C\OCCCO/C=C1\CCOC1=O` was run?
Its EC50 is over 100 µg/mL.

Which EC50 does the source give for `C=C1C(=O)O[C@@H]2[C@@H]3[C@H](C[C@H]12)[C@@H]1C=C[C@@H]3C1` here?
Its EC50 is 1 µg/mL (≈ 4.94 µM).

Which EC50 does the source give for `O=C1OCC/C1=C\OC(=O)c1ccccc1` here?
The EC50 was 100 µg/mL (≈ 458 µM).
